The results in this text go back to patent US20240207258A1, “HETEROCYCLIC PDK1 INHIBITORS FOR USE TO TREAT CANCER” (Viracta Therapeutics, Inc., priority 2015, published 2024).

Read-outs that look alike come from different tables or passages of the source.

A short description of data set [1]: Oral pharmacokinetics in mice. It is filed as in vivo. As to conditions: for Tmax / bioavailability: mouse, in vivo, oral; for bioavailability: read-out: oral bioavailability % F.
In data set [2] the test system is WSU-DLCL2. Briefly: MTS cell proliferation assay, WSU-DLCL2. It is filed as cell-based. As to conditions: Homo sapiens, WSUDLCL2; WSU-DLCL2, 72 hr. As for the experimental part:
(§1) Cell proliferation was measured using the CellTiter 96 Aqueous Non-Radioactive Cell Proliferation Assay (Promega). The CellTiter 96® AQueous Assay is composed of solutions of a tetrazolium compound [3-(4,5-dimethylthiazol-2-yl)-5-(3-carboxymethoxyphenyl)-2-(4-sulfophenyl)-2H-tetrazolium, inner salt; MTS] and an electron coupling reagent (phenazine methosulfate) PMS. MTS is bioreduced by cells into a formazan product that is soluble in tissue culture medium. The absorbance of the formazan product at 490 nm can be measured directly from assay plates without additional processing. The quantity of formazan product as measured by the amount of 490 nm absorbance is directly proportional to the number of living cells in culture. Cells were seeded into 96-well or 384-well clear plates in a volume of 200 μL (96-well) or 50 μL (384-well) at optimized densities ranging from 1,000 to 40,000 cells per well for 96-well plates or 1,200 to 25,000 cells per well for 384-well plates depending on cell-line. After 4-6 hr recovery, serially diluted compounds in DMSO were added to the cells using (0.1% v/v final DMSO concentration). Cells were then grown at 37° C. in a humidified incubator with 5% CO2 for 72 hr. A 20:1 [3-(4,5-dimethylthiazol-2-yl)-5-(3-carboxymethoxyphenyl)-2-(4-sulfophenyl)-2H-tetrazolium](MTS):phenazine methosulfate (PMS) solution in DPBS was made immediately before use, added to each well, and cells were incubated for 1.5 hr at 37° C. The absorbance at 490 nm was then measured using a platereader. Absorbance values were normalized as percent of control (cells incubated in the presence of 0.1% v/v DMSO). Sigmoidal dose-response curves were plotted using log(inhibitor) vs. response—Variable slope (four parameters) model with a top value constrained to 100% (GraphPad Prism version 6.00 for Windows, GraphPad Software, La Jolla California USA). […] Curves for compounds that reached a plateau were matched exactly to the measurement points. […]
In general terms: Tetrazolium dyes change colour on reduction, which living cells bring about.

Data set [3] deals with hematologic tumor cell lines. Briefly: MTS cell proliferation assay, panel of hematologic cancer cell lines. In kind it is cell-based. Summed up:
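72 hr compound exposure, 37° C, 5% CO2; 0.1% v/v DMSO final. Readout: MTS/PMS 20:1, 1.5 hr, A490. Data as % of DMSO control; 4-parameter log(inhibitor) fit, top fixed at 100%.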

Data set [4] deals with Mec-1. The experiment in a line: MTS cell proliferation assay, Mec-1. The conditions noted are these: Homo sapiens, MEC1; Mec-1, 72 hr. In kind it is cell-based. As for the experimental part: as §1
Data set [5] relates to U-2932. Briefly: MTS cell proliferation assay, U-2932. The conditions noted are these: Homo sapiens, U2932; U-2932, 72 hr. It is filed as cell-based. The protocol:
Cell proliferation was measured using the CellTiter 96 Aqueous Non-Radioactive Cell Proliferation Assay (Promega). The CellTiter 96® AQueous Assay is composed of solutions of a tetrazolium compound [3-(4,5-dimethylthiazol-2-yl)-5-(3-carboxymethoxyphenyl)-2-(4-sulfophenyl)-2H-tetrazolium, inner salt; MTS] and an electron coupling reagent (phenazine methosulfate) PMS. MTS is bioreduced by cells into a formazan product that is soluble in tissue culture medium. The absorbance of the formazan product at 490 nm can be measured directly from assay plates without additional processing. The quantity of formazan product as measured by the amount of 490 nm absorbance is directly proportional to the number of living cells in culture. Cells were seeded into 96-well or 384-well clear plates in a volume of 200 μL (96-well) or 50 μL (384-well) at optimized densities ranging from 1,000 to 40,000 cells per well for 96-well plates or 1,200 to 25,000 cells per well for 384-well plates depending on cell-line. After 4-6 hr recovery, serially diluted compounds in DMSO were added to the cells using (0.1% v/v final DMSO concentration). Cells were then grown at 37° C. in a humidified incubator with 5% CO2 for 72 hr. A 20:1 [3-(4,5-dimethylthiazol-2-yl)-5-(3-carboxymethoxyphenyl)-2-(4-sulfophenyl)-2H-tetrazolium](MTS):phenazine methosulfate (PMS) solution in DPBS was made immediately before use, added to each well, and cells were incubated for 1.5 hr at 37° C. The absorbance at 490 nm was then measured using a platereader. Absorbance values were normalized as percent of control (cells incubated in the presence of 0.1% v/v DMSO). Sigmoidal dose-response curves were plotted using log(inhibitor) vs. response—Variable slope (four parameters) model with a top value constrained to 100% (GraphPad Prism version 6.00 for Windows, GraphPad Software, La Jolla California USA). […] Curves for compounds that reached a plateau were matched exactly to the measurement points. […] To determine potential of compounds of the invention to affect viability of hematological cancers, cell lines representing various tumor types were selected and tested. Human cell lines tested were: MOLM-13 (acute myeloid leukemia (AML)), MV4-11 (AML), U-2932 (ABC-diffuse large B cell lymphoma), U-937 (histiocytic lymphoma), U-266 (multiple myeloma), RPMI-8226 (multiple myeloma), CMK (megakaryoblastic cell line), SU-DHL-4 (GCB-diffuse large B cell lymphoma), KG1 (AML), Mec-1 (chronic B-cell leukemia), MOLM-16 (AML), Jeko (B-cell lymphoma), WSU-DLCL2 (B-cell lymphoma), JJN3 (plasma cell leukemia), SU-DHL-6 (GCB-diffuse large B cell lymphoma), and Z-138 (mantle cell lymphoma). In addition, two murine cell lines were tested: A20 […].

For data set [6], the target named is T1, Full-length PDK1 (Homo sapiens, UniProt O15530).
T1 construct: Full-length PDK1 protein (SignalChem) was dephosphorylated; purchased SignalChem
T1 sequence (O15530 1-556): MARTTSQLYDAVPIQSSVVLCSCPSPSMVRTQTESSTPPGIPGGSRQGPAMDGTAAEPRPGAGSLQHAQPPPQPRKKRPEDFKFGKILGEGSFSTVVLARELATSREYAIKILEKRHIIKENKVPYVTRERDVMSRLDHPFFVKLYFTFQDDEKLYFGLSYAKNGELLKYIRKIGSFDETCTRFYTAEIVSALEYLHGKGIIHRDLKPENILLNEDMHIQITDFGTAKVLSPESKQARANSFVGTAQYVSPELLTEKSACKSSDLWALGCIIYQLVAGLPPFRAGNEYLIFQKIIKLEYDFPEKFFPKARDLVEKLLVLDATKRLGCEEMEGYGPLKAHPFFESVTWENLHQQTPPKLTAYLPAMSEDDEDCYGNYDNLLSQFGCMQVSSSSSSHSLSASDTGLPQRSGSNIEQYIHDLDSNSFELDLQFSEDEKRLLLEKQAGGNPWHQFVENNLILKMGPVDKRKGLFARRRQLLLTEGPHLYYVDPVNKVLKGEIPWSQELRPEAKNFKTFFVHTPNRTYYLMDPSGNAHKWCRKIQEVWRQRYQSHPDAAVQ
Briefly: PDK1 kinase activity assay (FRET). It is filed as biochemical. The conditions noted are these: for inhibition of PDK1 kinase activity: phosphorylated and un-phosphorylated PDK1, FIGS. 2A and 2B. As for the experimental part:
Full-length PDK1 protein (SignalChem) was dephosphorylated using GST-k-phosphatase (produced in house), which was subsequently removed using glutathione-agarose beads (Gold Biotechnology). […] Tb-pCrosstide antibody (ThermoFisher) was then added to a final concentration of 2 nM and the reaction was incubated for an additional 30 min. Fluorescence resonance energy transfer (FRET) was measured using a Tecan Infinite F500 plate reader with λex=340 nm, λem1=485 nm, λem2=520 nm.

The mark [7] stands for this setting: range against the various cell lines of Table 1, read-out: inhibition of cell proliferation EC50.

As usually defined, the Tmax is the time at which the peak concentration occurs. The term bioavailability denotes dose-corrected exposure relative to a reference, in per cent.

With `C[C@H](NC(=O)c1nc(C#N)cnc1NCc1ccc(-c2cnc3[nH]nc(N)c3n2)cc1)c1ccc(F)c(F)c1` [Compound 1, 3-[4-(3-Amino-1H-pyrazolo[3,4-b]pyrazin-5-yl)-benzylamino]-6-cyano-pyrazine-2-carboxylic acid [1-(3,4-difluoro-phenyl)-ethyl]-amide], the “half-life” value in data set [1] is “long half-life”. The Tmax in data set [1] lay within 4 to 8 h. For the same compound, in data set [1], the bioavailability was over 40%. Besides, the EC50 is 543 nM in data set [2], 3 to 853 nM in data set [3] (setting [7]), 415 nM in data set [4] and 108 nM in data set [5]. For the same compound, the “inhibition of PDK1 kinase activity” value in data set [6] is “potent inhibitors of both phosphorylated and un-phosphorylated PDK1”.

For `CNc1n[nH]c2ncc(-c3ccc(CNc4ncc(C#N)nc4C(=O)N[C@@H](C)c4ccc(F)c(F)c4)cc3)cc12` [Compound 2, 6-Cyano-3-[4-(3-methylamino-1H-pyrazolo[3,4-b]pyridin-5-yl)-benzylamino]-pyrazine-2-carboxylic acid [1-(3,4-difluoro-phenyl)-ethyl]-amide], in data set [1], the “half-life” value was “long half-life”. The time of peak concentration (Tmax) in data set [1] was in the range of 4 to 8 h. Besides, the bioavailability in data set [1] was over 40%. Besides, the EC50 in data set [2] is 354 nM; in data set [3] (panel of more than 20 cell lines derived from hematologic cancers, read-out: anti-proliferative activity EC50) it was 3 to 900 nM; in data set [3] (setting [7]), 3 to 853 nM; in data set [3] (range over 16 cell lines, FIG. 3, read-out: potency in the cell proliferation assay (EC50)), under 1000 nM; in data set [4], 215 nM; in data set [5] it was 56 nM. The “fold more potent than GSK2334470 in viability assays” value in data set [3] (72 hours viability assays) is listed as “at least 10 fold”. In data set [3] (out of 16 cell lines), the “number of cell lines with growth inhibition at concentrations less than 500 nM” value was 15. Moreover, the “biochemical potency compared to GSK2334470” value in data set [6] was “comparable biochemical potency”. In addition, the “inhibition of PDK1 kinase activity” value in data set [6] was “potent inhibitors of both phosphorylated and un-phosphorylated PDK1”.
